# Test results taken from patent US11213522B2, “Autoimmune-induced glutamatergic receptor dysfunction methods and treatments” (SARAH HERZOG MEMORIAL HOSPITAL EZRAT NASHIM ASSOCIATION, priority 2013, dated 2022).
# Experiments:
# [1] = system: patient positive for anti-NR1 NMDAR antibodies; assay: Trail-Making-Test (TMT) part A and part B; format: in vivo, human; settings: post-6 weeks D-serine
# Protocol: (§1) The trial consisted of two periods, starting with a 2 week lead-in/stabilization period (−2-0) following which the patient was entered in the second period of the study which consisted of a 6 week (0-6), open-label, fixed dose therapy phase. During this phase, the patient received adjuvant treatment with DSR, whose dose was increased from 1500 mg/day (week 1) to 2000 mg/day (weeks 2 and 3) to 3000 mg/day (weeks 4 and 5) and to 4000 mg/day (week 6). The doses of the ongoing medication received by the patient remained fixed throughout the study and no changes in medication were performed.
# In addition, cognitive performance was assessed pre- and post DSR treatment. For this purpose, a 1.5-hour neurocognitive assessment battery (nine computerized and two paper/pencil tests) was employed that measures accuracy and speed of performance in major cognition domains, including attention/vigilance, planning, short-term and working memory, decision making, abstraction and mental flexibility. All the tests were formatted like games and puzzles, and were administered to the patient as part of the comprehensive neuropsychiatric assessment at baseline and the end of study. […]
# [2] = system: patient positive for anti-NR1 NMDAR antibodies; assay: Digit Span Test (DST), forward and backward; format: in vivo, human; settings: post-6 weeks D-serine
# Protocol: as §1
# In addition, cognitive performance was assessed pre- and post DSR treatment. For this purpose, a 1.5-hour neurocognitive assessment battery (nine computerized and two paper/pencil tests) was employed that measures accuracy and speed of performance in major cognition domains, including attention/vigilance, planning, short-term and working memory, decision making, abstraction and mental flexibility. All the tests were formatted like games and puzzles, and were administered to the patient as part of the comprehensive neuropsychiatric assessment at baseline and the end of study. The neurocognitive battery included the 1) Test of Attentional Vigilance (TOAV, (Forbes, 1998, Journal of Clinical Psychology 54:461-476; Greenberg, 1993, Journal of Child Psychology and Psychiatry 34: 1019-30)); 2) Tower of London (TOL, (Shailice, 1982, Specific impairments of planning Philosophical Transactions of the Royal Society of London. Series B, Biological Sciences 298:199-209); 3-4) Digit Span Test (DST, forward and backward (Wechsler 1997, The Wechsler adult intelligence scale-III. San Antonio, Tex.: Psychological Corporation; Kaplan 1991, The WAIS-R as a neuropsychological instrument. San Antonio, Tex.: The Psychological Corporation; Lamar et al., 2007, Neuropsychologia 45:245-54; Lamar et al., 2008, Neuropsychologia 46:2597-601)); 5-6) Corsi Block Tapping Test (CBTT, forward and backward, (Corsi, 1972, Dissertation Abstracts International. 34:819B; Kessels et al., 2000, Applied Neuropsychology 7:252-58, Kessels et al., 2008, Assessment 15:426-34)); 7) Flanker Task (Erikson and Eriksen, 1974; Perception & Psychophysics 25: 249-63, Stins et. al., 2007, Advances in Cognitive Psychology 3:389-96); 8) Time Wall (Perez et al., 1987, Unified Tri-services cognitive performance assessment battery: review and methodology; DTIC Document ADA181697, http://www.dtic.mil/dtic/tr/fulltext/u2/a81697.pdf); and Wisconsin Card Sort Test (WCST, (Berg, 1948, J Gen Psychol39:15-22; Nelson, 1976, Cortex 12:313-24)). […]
# [3] = system: patient positive for anti-NR1 NMDAR antibodies; assay: Flanker Task; format: in vivo, human; settings: post-6 weeks D-serine
# Protocol: as §1
# In addition, cognitive performance was assessed pre- and post DSR treatment. For this purpose, a 1.5-hour neurocognitive assessment battery (nine computerized and two paper/pencil tests) was employed that measures accuracy and speed of performance in major cognition domains, including attention/vigilance, planning, short-term and working memory, decision making, abstraction and mental flexibility. All the tests were formatted like games and puzzles, and were administered to the patient as part of the comprehensive neuropsychiatric assessment at baseline and the end of study. The neurocognitive battery included the 1) Test of Attentional Vigilance (TOAV, (Forbes, 1998, Journal of Clinical Psychology 54:461-476; Greenberg, 1993, Journal of Child Psychology and Psychiatry 34: 1019-30)); 2) Tower of London (TOL, (Shailice, 1982, Specific impairments of planning Philosophical Transactions of the Royal Society of London. Series B, Biological Sciences 298:199-209); 3-4) Digit Span Test (DST, forward and backward (Wechsler 1997, The Wechsler adult intelligence scale-III. San Antonio, Tex.: Psychological Corporation; Kaplan 1991, The WAIS-R as a neuropsychological instrument. San Antonio, Tex.: The Psychological Corporation; Lamar et al., 2007, Neuropsychologia 45:245-54; Lamar et al., 2008, Neuropsychologia 46:2597-601)); 5-6) Corsi Block Tapping Test (CBTT, forward and backward, (Corsi, 1972, Dissertation Abstracts International. 34:819B; Kessels et al., 2000, Applied Neuropsychology 7:252-58, Kessels et al., 2008, Assessment 15:426-34)); 7) Flanker Task (Erikson and Eriksen, 1974; Perception & Psychophysics 25: 249-63, Stins et. al., 2007, Advances in Cognitive Psychology 3:389-96); 8) Time Wall (Perez et al., 1987, Unified Tri-services cognitive performance assessment battery: review and methodology; DTIC Document ADA181697, http://www.dtic.mil/dtic/tr/fulltext/u2/a81697.pdf); and Wisconsin Card Sort Test (WCST, (Berg, 1948, J Gen Psychol39:15-22; Nelson, 1976, Cortex 12:313-24)). In addition to the nine computerized tests, the patient completed two paper/pencil tests: 10-11) part A and part B of the Trail-Making-Test (TMT, (Reitan, 1958, Percept. Mot Skills 8:271-76; Reitan, 1992 Trail Making Test: Manual for administration and scoring. Tucson, Ariz.: Reitan Neuropsychology Laboratory)) according to the guidelines presented by Spreen and Strauss (1998)). All neurocognitive testing was completed in a private and quiet setting to limit any distractions.
# [4] = system: patient positive for anti-NR1 NMDAR antibodies; assay: Electroencephalogram (EEG) pre- and post-DSR administration; format: in vivo, human
# Protocol: as §1
# The patient underwent prior to entering the study and at study weeks 3 and 6 a medical work-up including complete medical history, and routine clinical blood work, including blood count+differential, lipids, and glucose levels, kidney, thyroid, and liver function parameters, urinalysis, and blood pressure measurements. Abdominal ultrasound was performed prior to study entry and electroencephalogram (EEG) and brain magnetic resonance imaging (MR1) were obtained pre- and post-DSR administration.
# [5] = acute and chronic administration of 1-2 g DSR in humans; cited from earlier work
# [6] = pre-treatment subject unable to complete task
compound,measurement,setting,value
N[C@H](CO)C(=O)O [D-serine],TMT Part A,[1]; pre-treatment 42,60.71 s
same,TMT Part B,[1]; pre-treatment 102,86.35 s
same,DST Forward Span Length (3-9),[2]; pre-treatment 6,7
same,DST Forward Number Correct (0-14),[2]; pre-treatment 8,9
same,DST Backward Number Correct (0-14),[2]; [6],3
same,DST Backward Span Length (3-9),[2]; [6],4
same,"Flanker Task Incongruous accuracy, mean ± SD",[3]; pre-treatment 0.450 ± 0.499,0.575 ± 0.494 proportion correct
same,"Flanker Task Congruous accuracy, mean ± SD",[3]; pre-treatment 0.475 ± 0.499,0.65 ± 0.476 proportion correct
same,"Flanker Task Neutral accuracy, mean ± SD",[3]; pre-treatment 0.475 ± 0.499,0.65 ± 0.476 proportion correct
same,"Flanker Task Congruous response time, mean ± SD",[3]; pre-treatment 725.03 ± 130.03,651.93 ± 130.16 milliseconds
same,"Flanker Task Neutral response time, mean ± SD",[3]; pre-treatment 732.18 ± 127.96,688.23 ± 99.19 milliseconds
same,"Flanker Task Incongruous response time, mean ± SD",[3]; pre-treatment 737.38 ± 131.34,713.3 ± 102.14 milliseconds
same,Current latency of EDB over the right frontal area,"[4]; following DSR treatment, t=2.686, df=113, p=0.0083, F8 channel",significant reduction
same,EEG extreme delta brush (EDB) pattern,[4]; post- vs pre-DSR administration (six weeks),attenuation of the EDB pattern
same,EEG coherence between electrodes,"[4]; post- vs pre-six weeks of D-serine, across all frequency bands",Distinct new patterns of EEG coherence
same,Increase in DSR serum levels,[5],≥ 100 times
